{
  "source": "patent US7834061B2",
  "about": "“Process for producing 1,4-dihydroxy-2-naphthoic acid” (Meiji Dairies Corporation, priority 2001, dated 2010)",
  "key": {"ICR male mice": {"tested_on": "ICR male mice", "test": "Animal model with osteoporosis induced by FK-506", "assay_type": "in vivo", "conditions": "DHNA 75 μg/kg orally every day, FK-506 1 mg/kg i.p. for 10 weeks, vs control group (FK 506 (+)) (FIG. 5)", "protocol": "As has been known, administration of FK-506, which is known as an immunosuppressive agent, to an animal induces osteoporosis-like conditions (J. Hard Tissue Biology, 103-107, 10 (2), 2001). […] FK-506 (1 mg/kg) was intraperitoneally administered to ICR male mice (eight weeks old) for 10 consecutive weeks. During the 10-week FK-506 administration, a feed (CRF-1, product of Oriental Yeast Co., Ltd.) was arbitrarily ingested into the mice, and DHNA (75 μg/kg) which had been suspended in a 1% aqueous DMSO (dimethyl sulfoxide) solution was orally administered to each of the mice every day."}, "[1]": {"tested_on": "Human osteoblasts (SaM-1)", "test": "Calcification of osteoblasts (Ca content of extracellular matrix, OCPC method)", "assay_type": "cell-based", "conditions": "DHNA 10^-7 M to 10^-5 M, 2 mM α-glycerophosphoric acid, culturing for 32 days, vs 0.1% DMSO control (FIG. 4)", "protocol": "Human osteoblasts (SaM-1), which had been cultured from long bone periosteum of a person obtained during fracture surgery, were employed. […] SaM-1 has been known to promote calcification in the presence of 2 mM of α-glycerophosphoric acid in a 1α, 25 (OH)2D3 concentration-dependent manner (Koshihara, Y. et al.: Biochem. Biophys. Res. commun., 145: 651-657, 1987).\nThe above-obtained SaM-1 cells of 18 PDL (population doubling level) were inoculated into a 12-well plate, and cultured until the cells reached a confluent state. Subsequently, α-glycerophosphoric acid, which is a calcification promoting agent, was added to the resultant culture broth such that the α-glycerophosphoric acid content became 2 mM. DHNA (10^−7 M to 10^−5 M) was added to the culture broth, followed by culturing for 32 days. For a control, DMSO (a solvent) was added to the culture broth such that the DMSO content became 0.1%. […]\nThe Ca content of extracellular matrix was quantified by use of a kit (Calcium C Test Wako) based on the o-cresolphthalein complexone method (OCPC method) (Gitleman, H. J.: Anal. Biochem., 18: 520-531, 1967).\nAfter completion of culturing, the resultant cells were washed with a Hanks' solution. […] Thereafter, the resultant reaction mixture was subjected to measurement by use of an absorbance meter (570 nm) (FIG. 4)."}},
  "data": [
    {"molecule": "O=C(O)c1cc(O)c2ccccc2c1O", "note": "[DHNA, 1,4-dihydroxy-2-naphthoic acid]", "values": [
      {"measurement": "bone density", "setting": "ICR male mice", "value": "significantly higher than that of the mice in the control group"},
      {"measurement": "degree of calcification (amount of Ca)", "setting": "[1]", "value": "promotes calcification in a concentration-dependent manner"}
    ]}
  ]
}
